Measurements published in US20240116985A1, “STAPLED PEPTIDES AND METHODS THEREOF” (priority 2020, published 2024).
In brackets after ≈: the same amount, converted by molar mass. Where two headings read alike, the source gives them in different places.

Experiments:
CHI Log D procedure = assay type: physicochemical
[1] = molecular target: T1, full-length beta-Catenin (Uniprot ID P35222) (Homo sapiens, UniProt P35222); assay: Fluorescence polarization IC50 (beta-catenin / 5FAM-TCF4 10-53 competition); assay type: binding
T1 construct: 10 nM full-length beta-Catenin (Uniprot ID P35222)
T1 sequence (P35222 1-781): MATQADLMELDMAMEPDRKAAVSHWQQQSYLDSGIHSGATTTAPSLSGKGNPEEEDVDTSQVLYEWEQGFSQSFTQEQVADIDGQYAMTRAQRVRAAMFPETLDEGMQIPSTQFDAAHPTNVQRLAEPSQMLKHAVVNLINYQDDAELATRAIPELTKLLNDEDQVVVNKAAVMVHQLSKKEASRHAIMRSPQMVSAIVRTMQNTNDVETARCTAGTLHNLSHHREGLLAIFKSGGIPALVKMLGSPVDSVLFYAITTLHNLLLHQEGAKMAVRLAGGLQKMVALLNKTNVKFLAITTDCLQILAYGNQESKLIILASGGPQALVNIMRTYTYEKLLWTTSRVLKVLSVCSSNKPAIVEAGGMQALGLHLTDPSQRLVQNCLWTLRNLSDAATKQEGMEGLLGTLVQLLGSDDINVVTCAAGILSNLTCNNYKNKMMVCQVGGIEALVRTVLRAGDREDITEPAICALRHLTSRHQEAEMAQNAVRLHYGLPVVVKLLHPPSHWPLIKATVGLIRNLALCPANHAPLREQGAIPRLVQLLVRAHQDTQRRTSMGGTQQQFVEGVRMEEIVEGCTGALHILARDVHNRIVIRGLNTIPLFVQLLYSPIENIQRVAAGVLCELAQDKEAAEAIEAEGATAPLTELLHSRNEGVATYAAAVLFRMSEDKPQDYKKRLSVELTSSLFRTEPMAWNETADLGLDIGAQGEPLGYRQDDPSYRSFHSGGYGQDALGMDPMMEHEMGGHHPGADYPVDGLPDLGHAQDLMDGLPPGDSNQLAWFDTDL

Solubility in PBS = assay type: physicochemical
Procedure, shortened: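 Steps: ultracentrifuge the peptide PBS solution, inject the supernatant on HPLC, inject a 50 μM peptide DMSO solution as reference, then calculate solubility as area ratio (PBS/DMSO) × 50 uM.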

[2] = fluorescence polarization, beta-catenin, read-out: FP EC50
[3] = FP EC50 (nM), fluorescence polarization, beta-catenin

chromatographic logD (CHI Log D procedure; pH 7.4, CHI Log D)	IC50 ([1]; read-out: beta-Catenin FP IC50)	Solubility (Solubility in PBS; Solubility (uM))	CHI Log D (CHI Log D procedure; pH 7.4)	IC50 [1, 2]	Solubility (Solubility in PBS)	Compound	chromatographic logD (CHI Log D procedure; pH 7.4)	IC50 [1, 3]
1.9	33 nM	47 µM (≈ 90.5 µg/mL)				CC(=O)N1CCC[C@]12CC=CCCCC1(CCCC=CCCCOC(=O)N3CC[C@@](C(=O)N[C@@H](Cc4ccsc4)C(=O)N[C@@H](Cc4csc5ccccc45)C(=O)N[C@@H](CCC(N)=O)C(N)=O)(C3)NC(=O)[C@H](CC(N)=O)NC(=O)[C@H](Cc3cscn3)NC(=O)[C@H](C)NC(=O)[C@H](C)NC(=O)[C@H](CC(=O)O)NC(=O)[C@H](CC(=O)O)NC1=O)NC(=O)[C@H](CC(C)(C)C)NC(=O)[C@H](CC(=O)O)NC2=O (stereo partly drawn) [I-812, Ac-PL3-Asp-Npg-B5-Asp-Asp-Ala-Ala-4Thz-Asn-PyrS2-3Thi-BztA-Gln-NH2]		
	13 nM		2.137	13 nM	40 µM (≈ 80.5 µg/mL)	CC(=O)N1CCC[C@]12CC=CCCCC1(CCCC=CCCCCOC(=O)N3CC[C@@](C(=O)N[C@@H](Cc4ccsc4)C(=O)N[C@@H](Cc4csc5ccccc45)C(=O)N[C@@H](Cc4c[nH]cn4)C(=O)N[C@@H](C)C(N)=O)(C3)NC(=O)[C@H](CC(N)=O)NC(=O)[C@H](Cc3ccccc3)NC(=O)[C@H](C)NC(=O)[C@H](C)NC(=O)[C@H](CC(=O)O)NC(=O)[C@H](CC(=O)O)NC1=O)NC(=O)[C@H](CC(C)(C)C)NC(=O)[C@H](CC(=O)O)NC2=O (stereo partly drawn) [I-828, Ac-PL3-Asp-Npg-B5-Asp-Asp-Ala-Ala-Phe-Asn-PyrS3-3Thi-BztA-His-Ala-NH2]		
2.49	154 nM				10 µM (≈ 19.8 µg/mL)	CC(=O)N1CCC[C@]12CC=CCCCC1(CCCC=CCCCOC(=O)N3CC[C@@](C(=O)N[C@@H](Cc4ccsc4)C(=O)N[C@@H](Cc4csc5ccccc45)C(=O)N[C@@H](Cc4c[nH]cn4)C(N)=O)(C3)NC(=O)[C@H](CC(N)=O)NC(=O)[C@H](Cc3ccccc3)NC(=O)[C@H](C)NC(=O)[C@H](C)NC(=O)[C@H](Cc3ccc(O)cc3)NC(=O)[C@H](CC(=O)O)NC1=O)NC(=O)[C@H](CC(C)(C)C)NC(=O)[C@H](CC(=O)O)NC2=O (stereo partly drawn) [I-843, Ac-PL3-Asp-Npg-B5-Asp-Tyr-Ala-Ala-Phe-Asn-PyrS2-3Thi-BztA-His-NH2]		
2.42	7 nM				10 µM (≈ 19.1 µg/mL)	CC(=O)N1CCC[C@]12CC=CCCCC1(CCCC=CCCCOC(=O)N3CC[C@@](C(=O)N[C@@H](Cc4ccsc4)C(=O)N[C@@H](Cc4csc5ccccc45)C(=O)N[C@@H](Cc4c[nH]cn4)C(N)=O)(C3)NC(=O)[C@H](CC(N)=O)NC(=O)[C@H](Cc3ccccc3)NC(=O)[C@H](C)NC(=O)[C@H](C)NC(=O)[C@H]([C@@H](C)O)NC(=O)[C@H](CC(=O)O)NC1=O)NC(=O)[C@H](CC(C)(C)C)NC(=O)[C@H](CC(=O)O)NC2=O (stereo partly drawn) [I-845, Ac-PL3-Asp-Npg-B5-Asp-Thr-Ala-Ala-Phe-Asn-PyrS2-3Thi-BztA-His-NH2]		
	61 nM		2.722	61 nM	10 µM (≈ 17.8 µg/mL)	CC(=O)N1CCC[C@]12CC=CCCCC1(CCCC=CCCCOC(=O)N3CC[C@@](C(=O)N[C@@H](Cc4ccsc4)C(=O)N[C@@H](Cc4csc5ccccc45)C(N)=O)(C3)NC(=O)[C@H](CC(N)=O)NC(=O)[C@H](Cc3ccccc3)NC(=O)[C@H](C)NC(=O)[C@H](C)NC(=O)[C@H]([C@@H](C)O)NC(=O)[C@H](CC(=O)O)NC1=O)NC(=O)[C@H](CC(C)(C)C)NC(=O)[C@H](CC(=O)O)NC2=O (stereo partly drawn) [I-860, Ac-PL3-Asp-Npg-B5-Asp-Thr-Ala-Ala-Phe-Asn-PyrS2-3Thi-BztA-NH2]		
2.55	40 nM	20 µM (≈ 36.6 µg/mL)				CC(=O)N1CCC[C@]12CC=CCCCC1(CCCC=CCCCOC(=O)N3CC[C@@](C(=O)N[C@@H](Cc4ccsc4)C(=O)N[C@@H](Cc4csc5ccccc45)C(N)=O)(C3)NC(=O)[C@H](CC(N)=O)NC(=O)[C@H](Cc3ccccc3)NC(=O)[C@H](C)NC(=O)[C@H](C)NC(=O)[C@H](CCCNC(N)=O)NC(=O)[C@H](CC(=O)O)NC1=O)NC(=O)[C@H](CC(C)(C)C)NC(=O)[C@H](CC(=O)O)NC2=O (stereo partly drawn) [I-861, Ac-PL3-Asp-Npg-B5-Asp-Cit-Ala-Ala-Phe-Asn-PyrS2-3Thi-BztA-NH2]		
2.85	123 nM				10 µM (≈ 17.9 µg/mL)	CC(=O)N1CCC[C@]12CC=CCCCC1(CCCC=CCCCOC(=O)N3CC[C@@](C(=O)N[C@@H](Cc4ccsc4)C(=O)N[C@@H](Cc4csc5ccccc45)C(N)=O)(C3)NC(=O)[C@H](CC(N)=O)NC(=O)[C@H](Cc3ccccc3)NC(=O)[C@H](C)NC(=O)[C@H](C)NC(=O)[C@H](CC(C)C)NC(=O)[C@H](CC(=O)O)NC1=O)NC(=O)[C@H](CC(C)(C)C)NC(=O)[C@H](CC(=O)O)NC2=O (stereo partly drawn) [I-862, Ac-PL3-Asp-Npg-B5-Asp-Leu-Ala-Ala-Phe-Asn-PyrS2-3Thi-BztA-NH2]		
2.4	53 nM	42 µM (≈ 94.2 µg/mL)				CC(=O)N1CCC[C@]12CC=CCCCC1(CCCC=CCCCOC(=O)N3CC[C@@](C(=O)N[C@@H](Cc4ccsc4)C(=O)N[C@@H](Cc4csc5ccccc45)C(=O)N[C@@H](CCC(N)=O)C(N)=O)(C3)NC(=O)[C@H](CC(N)=O)NC(=O)[C@H](Cc3ccccc3)NC(=O)[C@H](CCCCNC(=O)CCc3cc(C(F)(F)F)cc(C(F)(F)F)c3)NC(=O)[C@H](C)NC(=O)[C@H](CC(=O)O)NC(=O)[C@H](CC(=O)O)NC1=O)NC(=O)[C@H](CC(C)(C)C)NC(=O)[C@H](CC(=O)O)NC2=O (stereo partly drawn) [I-883, Ac-PL3-Asp-Npg-B5-Asp-Asp-Ala-[35CF3PhPr]Lys-Phe-Asn-PyrS2-3Thi-BztA-Gln-NH2]		
1.39	13 nM	21 µM (≈ 45.9 µg/mL)				CC(=O)N1CCC[C@]12CC=CCCCC1(CCCC=CCCCOC(=O)N3CC[C@@](C(=O)N[C@@H](Cc4ccsc4)C(=O)N[C@@H](Cc4csc5ccccc45)C(=O)N[C@@H](CCC(N)=O)C(N)=O)(C3)NC(=O)[C@H](CC(N)=O)NC(=O)[C@H](Cc3ccccc3)NC(=O)[C@H](CCCCNC(=O)C3CCN(C4CCN(C)CC4)CC3)NC(=O)[C@H](C)NC(=O)[C@H](CC(=O)O)NC(=O)[C@H](CC(=O)O)NC1=O)NC(=O)[C@H](CC(C)(C)C)NC(=O)[C@H](CC(=O)O)NC2=O (stereo partly drawn) [I-888, Ac-PL3-Asp-Npg-B5-Asp-Asp-Ala-[MeBipipAc]Lys-Phe-Asn-PyrS2-3Thi-BztA-Gln-NH2]		
1.53	13 nM	42 µM (≈ 89.7 µg/mL)				CC(=O)N1CCC[C@]12CC=CCCCC1(CCCC=CCCCOC(=O)N3CC[C@@](C(=O)N[C@@H](Cc4ccsc4)C(=O)N[C@@H](Cc4csc5ccccc45)C(=O)N[C@@H](CCC(N)=O)C(N)=O)(C3)NC(=O)[C@H](CC(N)=O)NC(=O)[C@H](Cc3ccccc3)NC(=O)[C@H](CCCCNC(=O)c3ccc(CN(C)C)cc3)NC(=O)[C@H](C)NC(=O)[C@H](CC(=O)O)NC(=O)[C@H](CC(=O)O)NC1=O)NC(=O)[C@H](CC(C)(C)C)NC(=O)[C@H](CC(=O)O)NC2=O (stereo partly drawn) [I-891, Ac-PL3-Asp-Npg-B5-Asp-Asp-Ala-[Me2NCBz]Lys-Phe-Asn-PyrS2-3Thi-BztA-Gln-NH2]		

Compound	chromatographic logD (CHI Log D procedure; pH 7.4, CHI Log D)	IC50 ([1]; read-out: beta-Catenin FP IC50)	Solubility (Solubility in PBS; Solubility (uM))	CHI Log D (CHI Log D procedure; pH 7.4)	IC50 [1, 2]	Solubility (Solubility in PBS)	chromatographic logD (CHI Log D procedure; pH 7.4)	IC50 [1, 3]
CC(=O)N1CCC[C@]12CC=CCCCC1(CCCC=CCCCOC(=O)N3CC[C@@](C(=O)N[C@@H](Cc4ccsc4)C(=O)N[C@@H](Cc4csc5ccccc45)C(=O)N[C@@H](CCCCNC(=O)CN=[N+]=[N-])C(N)=O)(C3)NC(=O)[C@H](CC(N)=O)NC(=O)[C@H](Cc3ccccc3)NC(=O)[C@H](C)NC(=O)[C@H](C)NC(=O)[C@H](CC(=O)O)NC(=O)[C@H](CC(=O)O)NC1=O)NC(=O)[C@H](CC(C)(C)C)NC(=O)[C@H](CC(=O)O)NC2=O (stereo partly drawn) [I-878, Ac-PL3-Asp-Npg-B5-Asp-Asp-Ala-Ala-Phe-Asn-PyrS2-3Thi-BztA-[AzAc]Lys-NH2]						46 µM (≈ 92.1 µg/mL)	2.09	6 nM
CC(=O)N1CCC[C@]12CC=CCCCC1(CCCC=CCCCOC(=O)N3CC[C@@](C(=O)N[C@@H](Cc4ccsc4)C(=O)N[C@@H](Cc4csc5ccccc45)C(=O)N[C@@H](CCC(N)=O)C(N)=O)(C3)NC(=O)[C@H](CC(N)=O)NC(=O)[C@H](Cc3ccccc3)NC(=O)[C@H](C)NC(=O)[C@H](CCCCNC(=O)CN=[N+]=[N-])NC(=O)[C@H](CC(=O)O)NC(=O)[C@H](CC(=O)O)NC1=O)NC(=O)[C@H](CC(C)(C)C)NC(=O)[C@H](CC(=O)O)NC2=O (stereo partly drawn) [I-879, Ac-PL3-Asp-Npg-B5-Asp-Asp-[AzAc]Lys-Ala-Phe-Asn-PyrS2-3Thi-BztA-Gln-NH2]						45 µM (≈ 92.6 µg/mL)	2	6 nM
CC(=O)N1CCC[C@]12CC=CCCCC1(CCCC=CCCCOC(=O)N3CC[C@@](C(=O)N[C@@H](Cc4ccsc4)C(=O)N[C@@H](Cc4csc5ccccc45)C(=O)N[C@@H](CCC(N)=O)C(N)=O)(C3)NC(=O)[C@H](CC(N)=O)NC(=O)[C@H](Cc3ccccc3)NC(=O)[C@H](C)NC(=O)[C@H](C)NC(=O)[C@H](CC(=O)O)NC(=O)[C@H](CC(=O)O)NC1=O)NC(=O)[C@H](CCCCNC(=O)CN=[N+]=[N-])NC(=O)[C@H](CC(=O)O)NC2=O (stereo partly drawn) [I-880, Ac-PL3-Asp-[AzAc]Lys-B5-Asp-Asp-Ala-Ala-Phe-Asn-PyrS2-3Thi-BztA-Gln-NH2]						42 µM (≈ 84.1 µg/mL)	1.72	6 nM
